Laboratory results published in PubChem BioAssay (NCI).
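Values below derive from 48-hour exposures of cells grown in 96-well plates, with endpoints linearly interpolated between the two concentrations bracketing the appropriate inhibition level. GI50 marks 50% less growth. TGI denotes the concentration required for complete inhibition of growth.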

Tests used:
Test in all cases: inhibition of tumour cell growth, NCI panel, 48 h
OVCAR-5 ovarian = tested on: OVCAR-5 ovarian
DU-145 prostate = tested on: DU-145 prostate
NCI-H460 lung = tested on: NCI-H460 lung
HCT-15 colon = tested on: HCT-15 colon
UO-31 renal = tested on: UO-31 renal
A498 renal = tested on: A498 renal
U251 CNS = tested on: U251 CNS
K-562 leukemia = tested on: K-562 leukemia
OVCAR-3 ovarian = tested on: OVCAR-3 ovarian
OVCAR-8 ovarian = tested on: OVCAR-8 ovarian
ACHN renal = tested on: ACHN renal
SK-MEL-28 melanoma = tested on: SK-MEL-28 melanoma
SN12C renal = tested on: SN12C renal
HCT-116 colon = tested on: HCT-116 colon
TK-10 renal = tested on: TK-10 renal
SF-539 CNS = tested on: SF-539 CNS
HCC-2998 colon = tested on: HCC-2998 colon
MDA-MB-435 = tested on: MDA-MB-435
KM12 colon = tested on: KM12 colon
SR leukemia = tested on: SR leukemia
COLO 205 colon = tested on: COLO 205 colon
UACC-62 melanoma = tested on: UACC-62 melanoma
SNB-19 CNS = tested on: SNB-19 CNS
MCF7 breast = tested on: MCF7 breast
SW-620 colon = tested on: SW-620 colon
HL-60(TB) leukemia = tested on: HL-60(TB) leukemia
UACC-257 melanoma = tested on: UACC-257 melanoma
NCI-H226 lung = tested on: NCI-H226 lung
SK-MEL-5 melanoma = tested on: SK-MEL-5 melanoma
CAKI-1 renal = tested on: CAKI-1 renal
A549 NSCLC = tested on: A549 NSCLC
RPMI-8226 leukemia = tested on: RPMI-8226 leukemia
NCI/ADR-RES ovarian = tested on: NCI/ADR-RES ovarian
786-0 renal = tested on: 786-0 renal
OVCAR-4 ovarian = tested on: OVCAR-4 ovarian
RXF 393 renal = tested on: RXF 393 renal
MDA-MB-231 breast = tested on: MDA-MB-231 breast
MALME-3M melanoma = tested on: MALME-3M melanoma
PC-3 prostate = tested on: PC-3 prostate
HOP-62 NSCLC = tested on: HOP-62 NSCLC
SNB-75 CNS = tested on: SNB-75 CNS
MOLT-4 leukemia = tested on: MOLT-4 leukemia
IGROV1 ovarian = tested on: IGROV1 ovarian
HT29 colon = tested on: HT29 colon
NCI-H23 lung = tested on: NCI-H23 lung
HOP-92 NSCLC = tested on: HOP-92 NSCLC
BT-549 breast = tested on: BT-549 breast
T-47D breast = tested on: T-47D breast
LOX IMVI melanoma = tested on: LOX IMVI melanoma
SK-OV-3 ovarian = tested on: SK-OV-3 ovarian
HS 578T breast = tested on: HS 578T breast
SF-268 CNS = tested on: SF-268 CNS
CCRF-CEM leukemia = tested on: CCRF-CEM leukemia
SF-295 CNS = tested on: SF-295 CNS
SK-MEL-2 melanoma = tested on: SK-MEL-2 melanoma
M14 melanoma = tested on: M14 melanoma
NCI-H522 lung = tested on: NCI-H522 lung
EKVX NSCLC = tested on: EKVX NSCLC

`COc1cc2c(c(OC)c1OC)-c1ccc(SC)c(=O)cc1[C@@H](NC1OC(CO)C(O)C(O)C1O)CC2` (some centres not stated) gave a GI50 (OVCAR-5 ovarian) of 51.9 nM, a TGI (OVCAR-5 ovarian) of over 100000 nM and a GI50 (DU-145 prostate) of 35.2 nM. For the same compound, the TGI (DU-145 prostate) was over 100000 nM, the GI50 (NCI-H460 lung) was 33.2 nM and the TGI (NCI-H460 lung) was over 100000 nM. The GI50 (HCT-15 colon) was 37.4 nM, the TGI (HCT-15 colon) was over 100000 nM and the GI50 (UO-31 renal) was 86.4 nM. The TGI (UO-31 renal) was over 100000 nM, the GI50 (A498 renal) was 13.5 nM and the TGI (A498 renal) was 67.4 nM. The GI50 (U251 CNS) was 31.8 nM, the TGI (U251 CNS) was 24400 nM and the GI50 (K-562 leukemia) was 22.7 nM. For the same compound, the TGI (K-562 leukemia) was over 100000 nM, the GI50 (OVCAR-3 ovarian) was 24.4 nM and the TGI (OVCAR-3 ovarian) was 76.2 nM. It also gave a GI50 (OVCAR-8 ovarian) of 38.7 nM, a TGI (OVCAR-8 ovarian) of over 100000 nM and a GI50 (ACHN renal) of 74.4 nM. The TGI (ACHN renal) was over 100000 nM, the GI50 (SK-MEL-28 melanoma) was 1650 nM and the TGI (SK-MEL-28 melanoma) was over 100000 nM. It also gave a GI50 (SN12C renal) of 55.7 nM, a TGI (SN12C renal) of over 100000 nM and a GI50 (HCT-116 colon) of 31.4 nM. The TGI (HCT-116 colon) was over 100000 nM, the GI50 (TK-10 renal) was 47.8 nM and the TGI (TK-10 renal) was 31200 nM. It also gave a GI50 (SF-539 CNS) of 24.3 nM, a TGI (SF-539 CNS) of 70.3 nM and a GI50 (HCC-2998 colon) of 36.8 nM. The TGI (HCC-2998 colon) was over 100000 nM, the TGI (MDA-MB-435) was 37.3 nM and the GI50 (KM12 colon) was 24 nM. For the same compound, the GI50 (SR leukemia) was 12.7 nM, the TGI (SR leukemia) was over 100000 nM and the GI50 (COLO 205 colon) was 16.1 nM. The TGI (COLO 205 colon) was 41.2 nM, the GI50 (UACC-62 melanoma) was 54.9 nM and the TGI (UACC-62 melanoma) was over 100000 nM. For the same compound, the GI50 (SNB-19 CNS) was 79.7 nM, the TGI (SNB-19 CNS) was over 100000 nM and the GI50 (MCF7 breast) was 21.5 nM. It also gave a TGI (MCF7 breast) of over 100000 nM, a GI50 (SW-620 colon) of 29.4 nM and a TGI (SW-620 colon) of over 100000 nM. For the same compound, the GI50 (HL-60(TB) leukemia) was 22.7 nM, the TGI (HL-60(TB) leukemia) was 66.6 nM and the GI50 (UACC-257 melanoma) was 447 nM. For the same compound, the TGI (UACC-257 melanoma) was over 100000 nM, the GI50 (NCI-H226 lung) was 1520 nM and the TGI (NCI-H226 lung) was over 100000 nM. The GI50 (SK-MEL-5 melanoma) was 28.8 nM, the TGI (SK-MEL-5 melanoma) was 195 nM and the GI50 (CAKI-1 renal) was 72.7 nM. It also gave a TGI (CAKI-1 renal) of over 100000 nM, a GI50 (A549 NSCLC) of 38.5 nM and a TGI (A549 NSCLC) of over 100000 nM. For the same compound, the GI50 (RPMI-8226 leukemia) was 44.4 nM, the TGI (RPMI-8226 leukemia) was over 100000 nM and the GI50 (NCI/ADR-RES ovarian) was 55.6 nM. For the same compound, the TGI (NCI/ADR-RES ovarian) was over 100000 nM, the GI50 (786-0 renal) was 57.5 nM and the TGI (786-0 renal) was over 100000 nM. For the same compound, the GI50 (OVCAR-4 ovarian) was 226 nM, the TGI (OVCAR-4 ovarian) was over 100000 nM and the GI50 (RXF 393 renal) was 61.3 nM. It also gave a TGI (RXF 393 renal) of over 100000 nM, a GI50 (MDA-MB-231 breast) of 34.1 nM and a TGI (MDA-MB-231 breast) of over 100000 nM. For the same compound, the GI50 (MALME-3M melanoma) was 44800 nM, the TGI (MALME-3M melanoma) was over 100000 nM and the GI50 (PC-3 prostate) was 34.7 nM. It also gave a TGI (PC-3 prostate) of over 100000 nM, a TGI (HOP-62 NSCLC) of over 100000 nM and a GI50 (SNB-75 CNS) of 43.9 nM. It also gave a TGI (SNB-75 CNS) of over 100000 nM, a GI50 (MOLT-4 leukemia) of 41.8 nM and a TGI (MOLT-4 leukemia) of over 100000 nM. The GI50 (IGROV1 ovarian) was 63.5 nM, the TGI (IGROV1 ovarian) was over 100000 nM and the GI50 (HT29 colon) was 28 nM. The TGI (HT29 colon) was 79.4 nM, the GI50 (NCI-H23 lung) was 56.8 nM and the TGI (NCI-H23 lung) was over 100000 nM. It also gave a GI50 (HOP-92 NSCLC) of 37.3 nM, a TGI (HOP-92 NSCLC) of over 57900 nM and a GI50 (BT-549 breast) of 67.9 nM. The TGI (BT-549 breast) was over 100000 nM, the GI50 (T-47D breast) was over 74900 nM and the TGI (T-47D breast) was over 100000 nM. It also gave a GI50 (LOX IMVI melanoma) of 37 nM, a TGI (LOX IMVI melanoma) of over 100000 nM and a GI50 (SK-OV-3 ovarian) of 39.6 nM. For the same compound, the TGI (SK-OV-3 ovarian) was over 100000 nM, the GI50 (HS 578T breast) was 42.5 nM and the TGI (HS 578T breast) was 61000 nM. The GI50 (SF-268 CNS) was 49 nM, the TGI (SF-268 CNS) was over 100000 nM and the GI50 (CCRF-CEM leukemia) was 38.2 nM. For the same compound, the TGI (CCRF-CEM leukemia) was over 100000 nM, the GI50 (SF-295 CNS) was 33.8 nM and the TGI (SF-295 CNS) was over 100000 nM. The GI50 (SK-MEL-2 melanoma) was 23.7 nM, the TGI (SK-MEL-2 melanoma) was 81 nM and the GI50 (M14 melanoma) was 31.1 nM. For the same compound, the TGI (M14 melanoma) was over 100000 nM.
In the case of `COc1cc(C2C3=C(COC3=O)Oc3cc4c(cc32)OCO4)cc(OC)c1OC(C)=O` (configuration not stated), the TGI (DU-145 prostate) is reported as over 100000 nM, the TGI (NCI-H460 lung) is reported as over 100000 nM and the TGI (HCT-15 colon) is reported as over 100000 nM. It also gave a TGI (UO-31 renal) of over 39400 nM, a TGI (A498 renal) of 618 nM and a TGI (U251 CNS) of over 100000 nM. It also gave a TGI (K-562 leukemia) of over 100000 nM, a TGI (OVCAR-3 ovarian) of over 100000 nM and a TGI (OVCAR-8 ovarian) of over 100000 nM. For the same compound, the TGI (ACHN renal) was over 57200 nM, the TGI (SN12C renal) was over 100000 nM and the TGI (TK-10 renal) was over 100000 nM. For the same compound, the TGI (HCC-2998 colon) was over 100000 nM, the TGI (KM12 colon) was over 100000 nM and the TGI (SR leukemia) was over 100000 nM. The TGI (COLO 205 colon) was 336 nM, the TGI (NCI-H522 lung) was over 100000 nM and the TGI (SNB-19 CNS) was over 100000 nM. The TGI (MCF7 breast) was over 51600 nM, the TGI (HL-60(TB) leukemia) was 615 nM and the TGI (UACC-257 melanoma) was over 100000 nM. The TGI (SK-MEL-5 melanoma) was 78.5 nM, the TGI (CAKI-1 renal) was over 100000 nM and the TGI (A549 NSCLC) was over 100000 nM. It also gave a TGI (RPMI-8226 leukemia) of over 100000 nM, a TGI (EKVX NSCLC) of over 100000 nM and a TGI (786-0 renal) of over 100000 nM. For the same compound, the TGI (OVCAR-4 ovarian) was over 100000 nM, the TGI (MALME-3M melanoma) was over 100000 nM and the TGI (HOP-62 NSCLC) was over 100000 nM. It also gave a TGI (MOLT-4 leukemia) of over 100000 nM, a TGI (IGROV1 ovarian) of 10900 nM and a TGI (BT-549 breast) of 5740 nM. For the same compound, the TGI (LOX IMVI melanoma) was over 24100 nM, the TGI (SF-268 CNS) was over 100000 nM and the TGI (CCRF-CEM leukemia) was over 100000 nM. For the same compound, the TGI (SK-MEL-2 melanoma) was over 100000 nM and the TGI (M14 melanoma) was over 100000 nM.
